Results from PubChem BioAssay (NCI).
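Protocol summary: plate cells (96-well), add compound at 5 concentrations, incubate 48 h, interpolate endpoints linearly. TGI: total growth inhibition.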

How the values were obtained:
Assay in all cases: inhibition of tumour cell growth, NCI panel, 48 h
MALME-3M melanoma = test system: MALME-3M melanoma
SF-539 CNS = test system: SF-539 CNS
A549 NSCLC = test system: A549 NSCLC
SW-620 colon = test system: SW-620 colon
SR leukemia = test system: SR leukemia
K-562 leukemia = test system: K-562 leukemia
RXF 393 renal = test system: RXF 393 renal
786-0 renal = test system: 786-0 renal
TK-10 renal = test system: TK-10 renal
UO-31 renal = test system: UO-31 renal
COLO 205 colon = test system: COLO 205 colon
M14 melanoma = test system: M14 melanoma
RPMI-8226 leukemia = test system: RPMI-8226 leukemia

COc1ccccc1C(O)[C@@H]1C[C@@H]2[C@H]3CC[C@@](C)([C@@H]2O1)C3(C)C (stereo partly drawn)
TGI (MALME-3M melanoma): 30.2 µM | TGI (SF-539 CNS): 24.2 µM | TGI (A549 NSCLC): 43.4 µM | TGI (SW-620 colon): 37.9 µM | TGI (SR leukemia): 48.3 µM | TGI (K-562 leukemia): 52.3 µM | TGI (RXF 393 renal): 32.6 µM | TGI (786-0 renal): 32.7 µM | TGI (TK-10 renal): 50.7 µM | TGI (UO-31 renal): 32.4 µM | TGI (COLO 205 colon): 35.2 µM | TGI (M14 melanoma): 40.1 µM | TGI (RPMI-8226 leukemia): 78.7 µM

CCOC(=O)NC(Nc1ccc(F)cc1)(C(=O)OCC)C(F)(F)F (stereo not drawn)
TGI (MALME-3M melanoma): > 100 µM | TGI (SF-539 CNS): > 100 µM | TGI (A549 NSCLC): > 100 µM | TGI (SW-620 colon): > 100 µM | TGI (SR leukemia): > 100 µM | TGI (K-562 leukemia): > 100 µM | TGI (RXF 393 renal): > 100 µM | TGI (786-0 renal): > 100 µM | TGI (TK-10 renal): > 100 µM | TGI (UO-31 renal): > 100 µM | TGI (COLO 205 colon): > 100 µM | TGI (M14 melanoma): > 100 µM | TGI (RPMI-8226 leukemia): > 100 µM

CC1=C(O)c2ccccc2C(=O)C1=O
TGI (MALME-3M melanoma): > 100 µM | TGI (SF-539 CNS): > 100 µM | TGI (A549 NSCLC): > 100 µM | TGI (SW-620 colon): > 100 µM | TGI (SR leukemia): > 100 µM | TGI (K-562 leukemia): > 100 µM | TGI (RXF 393 renal): > 100 µM | TGI (786-0 renal): > 100 µM | TGI (TK-10 renal): > 100 µM | TGI (UO-31 renal): > 65.3 µM | TGI (COLO 205 colon): > 100 µM | TGI (M14 melanoma): > 100 µM | TGI (RPMI-8226 leukemia): > 100 µM

O=[S@]1c2ccc3ccccc3c2N[C@@H]2[C@H]1[C@H]1C=C[C@@H]2C1
TGI (MALME-3M melanoma): > 100 µM | TGI (SF-539 CNS): > 100 µM | TGI (A549 NSCLC): > 100 µM | TGI (SW-620 colon): > 100 µM | TGI (SR leukemia): > 100 µM | TGI (K-562 leukemia): > 100 µM | TGI (RXF 393 renal): 95.1 µM | TGI (786-0 renal): > 100 µM | TGI (TK-10 renal): > 100 µM | TGI (UO-31 renal): > 100 µM | TGI (COLO 205 colon): > 100 µM | TGI (M14 melanoma): > 100 µM | TGI (RPMI-8226 leukemia): > 100 µM

OC(CN(CCCl)CCCl)C(O)C(O)C(O)CN(CCCl)CCCl (stereo not drawn)
TGI (MALME-3M melanoma): > 100 µM | TGI (SF-539 CNS): > 100 µM | TGI (A549 NSCLC): > 100 µM | TGI (SW-620 colon): > 100 µM | TGI (SR leukemia): > 100 µM | TGI (K-562 leukemia): > 100 µM | TGI (RXF 393 renal): > 100 µM | TGI (786-0 renal): > 100 µM | TGI (TK-10 renal): > 100 µM | TGI (UO-31 renal): > 100 µM | TGI (COLO 205 colon): > 100 µM | TGI (M14 melanoma): > 100 µM | TGI (RPMI-8226 leukemia): > 100 µM

CC(C)=CCC[C@@H](C)C1=C(O)C(Nc2ccccc2Cl)=C(C)C(=O)C1=O
TGI (MALME-3M melanoma): 29.3 µM | TGI (SF-539 CNS): 35.7 µM | TGI (A549 NSCLC): > 59.7 µM | TGI (SW-620 colon): > 75 µM | TGI (SR leukemia): 72.1 µM | TGI (K-562 leukemia): > 75 µM | TGI (RXF 393 renal): > 50.8 µM | TGI (786-0 renal): > 52 µM | TGI (TK-10 renal): > 75 µM | TGI (UO-31 renal): > 49.5 µM | TGI (COLO 205 colon): 21.7 µM | TGI (M14 melanoma): > 59.9 µM | TGI (RPMI-8226 leukemia): > 55.8 µM
